This is an account of results in the supplement of paper PMC8967900.

Molecules are shown by their SMILES.
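Note: ALL cell lines in 384-well plates, five doses spanning 10,000-fold, each plate scaled between vehicle and 100 µmol/L benzalkonium chloride controls, sDSS an adapted area-under-curve metric.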

One experiment relates to MHH-CALL-3. In words: selective drug sensitivity score (sDSS, relative to normal bone marrow) (sDSS (score)); higher = more potent and effective on the cell line relative to normal bone marrow cells. To be noted: 72 h.
As for `Cc1cc(C(C)Nc2ccccc2)c2nc(N3CCOCC3)cc(=O)n2c1` (stereo unspecified) [TGX-221] (top concentration 10000 nM), the “selective drug sensitivity score” value is -1.64.
Same read-out and setting: the value for `Cc1nc(-c2cn3c(n2)-c2ccc(-c4cnn(C(C)(C)C(N)=O)c4)cc2OCC3)n(C(C)C)n1` [Taselisib] (top concentration 1000 nM) was -4.3; that for `O=C(Nc1cccc(Nc2ncc(Br)c(NCCc3cnc[nH]3)n2)c1)N1CCCC1` [BX-912] (top concentration 10000 nM) was 3.06.
With `NS(=O)(=O)OC[C@@H]1C[C@@H](n2ccc3c(N[C@H]4CCc5ccccc54)ncnc32)C[C@@H]1O` [Pevonedistat] (top concentration 10000 nM), the “selective drug sensitivity score” value worked out at 7.4.
The same measure, in the same setting: the value for `N#Cc1ccc(COC[C@H]2O[C@@H](n3c(NCc4ccc(Cl)c(Cl)c4)nc4c(N)ncnc43)[C@H](O)[C@@H]2O)cc1` (top concentration 10000 nM) was 0.32; that for `C=C1C[C@@H]2[C@H](CC[C@]3(C)C(=O)CC[C@@H]23)[C@@]2(C)C=CC(=O)C=C12` [Exemestane] (top concentration 10000 nM) was 0.1.
The same measure, in the same setting: then `NCC(=O)Nc1ccc(-n2nc(C(F)(F)F)cc2-c2ccc3c(ccc4ccccc43)c2)cc1` (top concentration 25000 nM), with -0.2.

The subject of the next experiment is CCRF-CEM. The experiment is described as above. To be noted: 72 h.
Consider `Cc1cc(C(C)Nc2ccccc2)c2nc(N3CCOCC3)cc(=O)n2c1` (stereo unspecified) [TGX-221] (top concentration 10000 nM), for which the “selective drug sensitivity score” value was -0.54.
As for `Cc1nc(-c2cn3c(n2)-c2ccc(-c4cnn(C(C)(C)C(N)=O)c4)cc2OCC3)n(C(C)C)n1` [Taselisib] (top concentration 1000 nM), the “selective drug sensitivity score” value worked out at 3.9.
Turning to `O=C(Nc1cccc(Nc2ncc(Br)c(NCCc3cnc[nH]3)n2)c1)N1CCCC1` [BX-912] (top concentration 10000 nM), the “selective drug sensitivity score” value stood at 9.96.
The same measure, in the same setting: the value for `NS(=O)(=O)OC[C@@H]1C[C@@H](n2ccc3c(N[C@H]4CCc5ccccc54)ncnc32)C[C@@H]1O` [Pevonedistat] (top concentration 10000 nM) was 16.4; that for `N#Cc1ccc(COC[C@H]2O[C@@H](n3c(NCc4ccc(Cl)c(Cl)c4)nc4c(N)ncnc43)[C@H](O)[C@@H]2O)cc1` (top concentration 10000 nM) was 7.62.
On the same count and under the same terms, then `C=C1C[C@@H]2[C@H](CC[C@]3(C)C(=O)CC[C@@H]23)[C@@]2(C)C=CC(=O)C=C12` [Exemestane] (top concentration 10000 nM), with -0.9; and `NCC(=O)Nc1ccc(-n2nc(C(F)(F)F)cc2-c2ccc3c(ccc4ccccc43)c2)cc1` (top concentration 25000 nM), with 7.9.

A further experiment concerns COG-LL-394h. The description is as above. The conditions noted are these: 72 h.
With `Cc1cc(C(C)Nc2ccccc2)c2nc(N3CCOCC3)cc(=O)n2c1` (stereo unspecified) [TGX-221] (top concentration 10000 nM), the “selective drug sensitivity score” value is -1.24.
Same read-out and setting: the value for `Cc1nc(-c2cn3c(n2)-c2ccc(-c4cnn(C(C)(C)C(N)=O)c4)cc2OCC3)n(C(C)C)n1` [Taselisib] (top concentration 1000 nM) was -2.7; that for `O=C(Nc1cccc(Nc2ncc(Br)c(NCCc3cnc[nH]3)n2)c1)N1CCCC1` [BX-912] (top concentration 10000 nM) was -2.24; that for `NS(=O)(=O)OC[C@@H]1C[C@@H](n2ccc3c(N[C@H]4CCc5ccccc54)ncnc32)C[C@@H]1O` [Pevonedistat] (top concentration 10000 nM) was 2.7.
Same read-out and setting: the value for `N#Cc1ccc(COC[C@H]2O[C@@H](n3c(NCc4ccc(Cl)c(Cl)c4)nc4c(N)ncnc43)[C@H](O)[C@@H]2O)cc1` (top concentration 10000 nM) was -0.08.
Turning to `C=C1C[C@@H]2[C@H](CC[C@]3(C)C(=O)CC[C@@H]23)[C@@]2(C)C=CC(=O)C=C12` [Exemestane] (top concentration 10000 nM), the “selective drug sensitivity score” value was -0.4.
Regarding `NCC(=O)Nc1ccc(-n2nc(C(F)(F)F)cc2-c2ccc3c(ccc4ccccc43)c2)cc1` (top concentration 25000 nM), the “selective drug sensitivity score” value was -0.2.
